Measured values reported in ChEMBL document CHEMBL5653631, “A Potent and Selective ULK1 Inhibitor Suppresses Autophagy and Sensitizes Cancer Cells to Nutrient Stress” (iScience, 2018).

Legend:
[1] = target: eIF-2-alpha kinase GCN2 (Homo sapiens) (UniProt Q9P2K8); test: Inhibition of human recombinant GCN2 at 40 nM related to control ULK1
[2] = target: T1, Ephrin type-B receptor 2 (Homo sapiens) (UniProt P29323); test: Inhibition of human recombinant EphB2 at 40 nM related to control ULK1
T1 sequence (whole entry): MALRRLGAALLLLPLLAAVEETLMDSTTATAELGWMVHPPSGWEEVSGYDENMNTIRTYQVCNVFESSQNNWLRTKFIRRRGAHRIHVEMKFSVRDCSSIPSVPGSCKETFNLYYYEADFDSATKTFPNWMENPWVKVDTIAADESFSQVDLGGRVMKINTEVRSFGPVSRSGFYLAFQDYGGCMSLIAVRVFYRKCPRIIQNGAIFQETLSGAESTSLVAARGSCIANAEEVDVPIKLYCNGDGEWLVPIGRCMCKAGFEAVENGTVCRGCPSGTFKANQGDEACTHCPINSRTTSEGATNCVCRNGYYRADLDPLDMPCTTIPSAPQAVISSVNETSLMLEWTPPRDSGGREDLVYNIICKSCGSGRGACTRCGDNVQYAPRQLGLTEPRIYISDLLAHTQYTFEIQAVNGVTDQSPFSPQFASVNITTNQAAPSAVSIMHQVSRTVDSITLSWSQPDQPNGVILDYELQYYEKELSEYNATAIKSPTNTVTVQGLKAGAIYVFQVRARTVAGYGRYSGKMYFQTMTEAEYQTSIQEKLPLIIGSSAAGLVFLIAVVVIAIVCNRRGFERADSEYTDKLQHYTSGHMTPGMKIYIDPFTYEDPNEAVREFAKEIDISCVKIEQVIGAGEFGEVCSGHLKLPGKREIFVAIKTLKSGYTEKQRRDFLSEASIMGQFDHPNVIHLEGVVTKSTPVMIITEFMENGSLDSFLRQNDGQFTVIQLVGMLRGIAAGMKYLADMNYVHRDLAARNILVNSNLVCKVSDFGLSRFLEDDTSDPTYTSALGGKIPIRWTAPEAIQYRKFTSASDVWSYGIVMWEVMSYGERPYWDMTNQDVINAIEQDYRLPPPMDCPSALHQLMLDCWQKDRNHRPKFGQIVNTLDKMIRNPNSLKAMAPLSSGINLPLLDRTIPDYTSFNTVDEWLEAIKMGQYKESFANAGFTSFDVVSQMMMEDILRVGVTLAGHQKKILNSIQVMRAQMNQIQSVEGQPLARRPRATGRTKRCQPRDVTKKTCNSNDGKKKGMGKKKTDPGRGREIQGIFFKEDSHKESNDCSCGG

[3] = target: Dual specificity mitogen-activated protein kinase kinase 2 (Homo sapiens) (UniProt P36507); test: Inhibition of human recombinant MAP2K2 at 40 nM in presence of ATP by radiometric assay relative to control
[4] = target: T2, Serine/threonine-protein kinase TAO2 (Homo sapiens) (UniProt Q9UL54); test: Inhibition of human recombinant TAO2 at 40 nM in presence of ATP by radiometric assay relative to control
T2 sequence (whole entry): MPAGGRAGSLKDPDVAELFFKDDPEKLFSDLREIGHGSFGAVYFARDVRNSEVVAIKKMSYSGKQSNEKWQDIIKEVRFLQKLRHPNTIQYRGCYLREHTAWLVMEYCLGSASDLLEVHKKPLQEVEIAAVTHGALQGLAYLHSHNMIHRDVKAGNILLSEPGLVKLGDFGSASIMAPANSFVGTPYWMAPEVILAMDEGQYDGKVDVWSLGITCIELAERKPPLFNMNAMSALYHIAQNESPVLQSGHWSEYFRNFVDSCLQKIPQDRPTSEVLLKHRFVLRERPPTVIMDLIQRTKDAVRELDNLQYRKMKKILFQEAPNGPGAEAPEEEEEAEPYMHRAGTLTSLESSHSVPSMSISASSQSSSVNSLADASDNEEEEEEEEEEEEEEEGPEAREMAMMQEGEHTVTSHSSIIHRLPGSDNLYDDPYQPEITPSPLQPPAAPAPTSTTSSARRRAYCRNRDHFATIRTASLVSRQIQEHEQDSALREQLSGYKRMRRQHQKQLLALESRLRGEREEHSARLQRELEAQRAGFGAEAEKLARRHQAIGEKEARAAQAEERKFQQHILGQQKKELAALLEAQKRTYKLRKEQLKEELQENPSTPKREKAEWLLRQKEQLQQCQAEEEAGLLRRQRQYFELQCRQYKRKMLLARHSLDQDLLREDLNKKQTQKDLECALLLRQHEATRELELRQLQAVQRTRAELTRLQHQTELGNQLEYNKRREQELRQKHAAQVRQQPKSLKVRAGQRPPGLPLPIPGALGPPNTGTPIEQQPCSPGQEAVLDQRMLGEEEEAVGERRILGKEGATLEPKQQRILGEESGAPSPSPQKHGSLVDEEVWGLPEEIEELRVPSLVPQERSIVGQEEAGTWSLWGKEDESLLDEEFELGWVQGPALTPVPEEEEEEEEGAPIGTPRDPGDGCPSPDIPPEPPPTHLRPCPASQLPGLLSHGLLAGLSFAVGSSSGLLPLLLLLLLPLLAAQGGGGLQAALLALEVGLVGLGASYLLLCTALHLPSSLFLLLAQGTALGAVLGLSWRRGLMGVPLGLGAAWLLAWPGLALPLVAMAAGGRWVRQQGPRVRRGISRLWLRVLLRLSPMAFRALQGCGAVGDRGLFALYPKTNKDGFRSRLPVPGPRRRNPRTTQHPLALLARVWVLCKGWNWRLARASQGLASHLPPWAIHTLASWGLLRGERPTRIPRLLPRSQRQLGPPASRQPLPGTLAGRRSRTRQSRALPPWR

[5] = target: Ribosomal protein S6 kinase alpha-4 (Homo sapiens) (UniProt O75676); test: Inhibition of human recombinant MSK2 at 40 nM related to control ULK1
[6] = target: PAS domain-containing serine/threonine-protein kinase (Homo sapiens) (UniProt Q96RG2); test: Inhibition of human recombinant PASK at 15 nM in presence of ATP by radiometric assay relative to control
[7] = target: T3, Tribbles homolog 2 (Homo sapiens) (UniProt Q92519); test: Inhibition of human recombinant Trb2 at 15 nM related to control ULK1
T3 sequence (whole entry): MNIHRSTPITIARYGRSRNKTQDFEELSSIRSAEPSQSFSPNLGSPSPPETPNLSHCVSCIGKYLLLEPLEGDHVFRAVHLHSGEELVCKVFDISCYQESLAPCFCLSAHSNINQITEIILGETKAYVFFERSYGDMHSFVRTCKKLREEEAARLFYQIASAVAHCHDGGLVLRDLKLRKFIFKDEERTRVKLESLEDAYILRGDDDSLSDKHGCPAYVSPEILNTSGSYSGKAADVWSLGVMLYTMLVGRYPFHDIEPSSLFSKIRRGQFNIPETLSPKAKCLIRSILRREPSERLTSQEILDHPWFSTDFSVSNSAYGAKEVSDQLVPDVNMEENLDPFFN

Chain of PAS domain-containing serine/threonine-protein kinase (Homo sapiens) (Q96RG2 whole entry, the tested form may be a part): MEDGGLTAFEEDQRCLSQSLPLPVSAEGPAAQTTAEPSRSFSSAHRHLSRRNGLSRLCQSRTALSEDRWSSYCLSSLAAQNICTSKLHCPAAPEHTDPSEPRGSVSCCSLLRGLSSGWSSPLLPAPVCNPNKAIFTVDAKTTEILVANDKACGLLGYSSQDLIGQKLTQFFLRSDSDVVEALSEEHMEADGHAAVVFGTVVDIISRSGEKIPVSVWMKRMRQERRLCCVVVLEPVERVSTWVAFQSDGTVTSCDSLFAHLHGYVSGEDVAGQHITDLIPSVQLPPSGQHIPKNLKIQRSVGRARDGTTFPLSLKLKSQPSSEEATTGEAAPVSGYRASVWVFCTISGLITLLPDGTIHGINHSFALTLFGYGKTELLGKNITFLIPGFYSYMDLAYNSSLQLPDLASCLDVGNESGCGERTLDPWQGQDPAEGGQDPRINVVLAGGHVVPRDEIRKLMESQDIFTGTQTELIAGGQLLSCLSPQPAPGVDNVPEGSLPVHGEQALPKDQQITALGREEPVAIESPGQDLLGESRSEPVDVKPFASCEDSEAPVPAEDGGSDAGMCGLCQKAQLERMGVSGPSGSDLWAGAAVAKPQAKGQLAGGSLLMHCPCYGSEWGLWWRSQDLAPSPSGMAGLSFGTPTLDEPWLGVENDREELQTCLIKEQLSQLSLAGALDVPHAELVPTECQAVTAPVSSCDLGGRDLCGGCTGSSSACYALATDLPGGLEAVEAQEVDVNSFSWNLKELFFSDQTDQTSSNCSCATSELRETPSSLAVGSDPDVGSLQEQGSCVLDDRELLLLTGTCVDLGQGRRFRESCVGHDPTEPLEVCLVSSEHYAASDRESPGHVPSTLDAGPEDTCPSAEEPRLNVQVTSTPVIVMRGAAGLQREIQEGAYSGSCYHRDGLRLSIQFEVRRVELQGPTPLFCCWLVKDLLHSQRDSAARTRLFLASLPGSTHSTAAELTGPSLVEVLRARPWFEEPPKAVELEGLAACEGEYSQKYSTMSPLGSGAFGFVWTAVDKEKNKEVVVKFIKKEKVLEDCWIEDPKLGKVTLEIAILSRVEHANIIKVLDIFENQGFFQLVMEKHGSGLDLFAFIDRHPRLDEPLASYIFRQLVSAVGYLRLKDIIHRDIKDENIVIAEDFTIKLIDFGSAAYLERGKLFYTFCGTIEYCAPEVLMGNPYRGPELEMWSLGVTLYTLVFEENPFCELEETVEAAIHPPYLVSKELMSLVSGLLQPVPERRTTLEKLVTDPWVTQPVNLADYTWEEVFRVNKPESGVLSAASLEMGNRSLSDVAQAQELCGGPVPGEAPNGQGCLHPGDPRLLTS
Chain of Dual specificity mitogen-activated protein kinase kinase 2 (Homo sapiens) (P36507 whole entry): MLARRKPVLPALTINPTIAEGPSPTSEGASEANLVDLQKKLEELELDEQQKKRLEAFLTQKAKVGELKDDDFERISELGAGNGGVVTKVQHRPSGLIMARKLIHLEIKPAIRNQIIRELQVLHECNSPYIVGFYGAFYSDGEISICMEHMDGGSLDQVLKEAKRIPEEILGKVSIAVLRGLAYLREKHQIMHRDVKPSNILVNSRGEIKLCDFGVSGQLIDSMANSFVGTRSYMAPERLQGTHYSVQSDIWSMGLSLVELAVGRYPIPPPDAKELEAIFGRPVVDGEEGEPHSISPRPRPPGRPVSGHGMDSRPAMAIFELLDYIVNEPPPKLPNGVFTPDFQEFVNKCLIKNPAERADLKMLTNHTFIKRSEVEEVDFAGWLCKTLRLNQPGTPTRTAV
Chain of Ribosomal protein S6 kinase alpha-4 (Homo sapiens) (O75676 whole entry, looked up, the tested form may be a part): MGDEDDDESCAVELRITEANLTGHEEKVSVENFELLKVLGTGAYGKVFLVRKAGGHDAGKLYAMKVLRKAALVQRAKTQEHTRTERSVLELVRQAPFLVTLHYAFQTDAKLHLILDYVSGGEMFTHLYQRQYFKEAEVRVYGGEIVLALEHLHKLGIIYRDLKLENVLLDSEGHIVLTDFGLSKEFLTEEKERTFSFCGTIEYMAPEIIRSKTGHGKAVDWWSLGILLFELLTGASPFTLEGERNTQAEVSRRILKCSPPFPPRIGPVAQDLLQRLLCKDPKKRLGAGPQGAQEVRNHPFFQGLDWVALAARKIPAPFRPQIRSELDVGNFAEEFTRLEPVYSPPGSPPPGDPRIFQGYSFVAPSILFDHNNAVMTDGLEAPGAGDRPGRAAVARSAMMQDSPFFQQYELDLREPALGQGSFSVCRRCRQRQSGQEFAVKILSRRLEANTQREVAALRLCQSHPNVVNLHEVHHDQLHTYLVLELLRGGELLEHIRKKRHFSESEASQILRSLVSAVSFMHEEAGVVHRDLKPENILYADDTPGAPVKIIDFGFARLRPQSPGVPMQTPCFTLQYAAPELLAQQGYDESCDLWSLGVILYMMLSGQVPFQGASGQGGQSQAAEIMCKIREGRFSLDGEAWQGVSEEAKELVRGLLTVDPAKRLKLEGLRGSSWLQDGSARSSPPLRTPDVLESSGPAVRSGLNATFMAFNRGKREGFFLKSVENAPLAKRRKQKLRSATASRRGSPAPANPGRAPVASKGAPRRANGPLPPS
Chain of eIF-2-alpha kinase GCN2 (Homo sapiens) (Q9P2K8 whole entry): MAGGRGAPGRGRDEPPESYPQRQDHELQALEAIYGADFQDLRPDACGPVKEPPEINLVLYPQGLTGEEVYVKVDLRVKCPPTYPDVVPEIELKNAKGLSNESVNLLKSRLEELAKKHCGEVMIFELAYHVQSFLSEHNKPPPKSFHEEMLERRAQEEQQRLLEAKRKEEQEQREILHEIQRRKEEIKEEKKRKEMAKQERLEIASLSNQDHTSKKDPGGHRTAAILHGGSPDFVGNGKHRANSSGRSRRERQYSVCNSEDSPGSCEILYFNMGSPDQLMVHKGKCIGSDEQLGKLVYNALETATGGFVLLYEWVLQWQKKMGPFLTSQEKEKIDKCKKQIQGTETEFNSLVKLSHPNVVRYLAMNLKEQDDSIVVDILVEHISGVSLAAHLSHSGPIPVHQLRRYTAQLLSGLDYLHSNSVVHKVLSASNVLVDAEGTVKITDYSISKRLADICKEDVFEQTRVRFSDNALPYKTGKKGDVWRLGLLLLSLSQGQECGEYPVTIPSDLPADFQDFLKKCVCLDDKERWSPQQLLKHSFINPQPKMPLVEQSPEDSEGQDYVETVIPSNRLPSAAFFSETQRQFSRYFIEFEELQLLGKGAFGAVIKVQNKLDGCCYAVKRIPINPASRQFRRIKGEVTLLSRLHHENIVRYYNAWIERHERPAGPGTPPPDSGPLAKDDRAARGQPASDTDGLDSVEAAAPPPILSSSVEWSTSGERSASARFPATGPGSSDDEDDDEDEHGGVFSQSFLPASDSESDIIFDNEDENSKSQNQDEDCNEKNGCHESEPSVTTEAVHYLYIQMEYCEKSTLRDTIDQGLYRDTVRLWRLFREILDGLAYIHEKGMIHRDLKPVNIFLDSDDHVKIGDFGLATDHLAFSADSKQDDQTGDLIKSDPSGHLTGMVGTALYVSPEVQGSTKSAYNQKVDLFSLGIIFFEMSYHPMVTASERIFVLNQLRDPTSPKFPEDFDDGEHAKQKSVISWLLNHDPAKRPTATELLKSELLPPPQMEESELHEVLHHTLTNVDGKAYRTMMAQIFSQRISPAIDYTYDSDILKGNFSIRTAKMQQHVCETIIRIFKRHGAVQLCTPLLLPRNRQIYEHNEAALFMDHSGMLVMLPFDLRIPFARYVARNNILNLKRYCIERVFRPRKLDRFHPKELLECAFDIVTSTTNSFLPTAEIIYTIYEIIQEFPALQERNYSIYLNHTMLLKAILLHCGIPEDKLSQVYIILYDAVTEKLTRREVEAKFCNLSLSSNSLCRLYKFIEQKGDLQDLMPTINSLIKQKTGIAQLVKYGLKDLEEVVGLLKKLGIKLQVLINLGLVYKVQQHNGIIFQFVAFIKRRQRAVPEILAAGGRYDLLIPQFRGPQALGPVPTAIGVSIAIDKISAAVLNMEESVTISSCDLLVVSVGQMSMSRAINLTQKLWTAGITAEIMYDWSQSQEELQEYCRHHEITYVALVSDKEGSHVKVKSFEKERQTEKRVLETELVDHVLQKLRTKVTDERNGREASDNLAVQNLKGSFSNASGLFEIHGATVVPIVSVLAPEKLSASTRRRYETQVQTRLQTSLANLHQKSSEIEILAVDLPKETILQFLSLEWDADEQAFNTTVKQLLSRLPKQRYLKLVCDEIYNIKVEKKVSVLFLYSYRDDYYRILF

Structure (SMILES)	fold change (FC) [1]	fold change (FC) [2]	inhibition [3] [%]	inhibition [4] [%]	fold change (FC) [5]	inhibition [6] [%]	fold change (FC) [7]
O=C(N[C@@H](C1CC1)C(F)(F)F)c1cc(-c2cnn3cc(-c4ccc(F)cc4)cnc23)cs1	0.05	0.05	0	3	0	–	–
CC(C)[C@H](NC(=O)c1cc(-c2cnn3cc(-c4ccc(OCCN5CCCCC5)cc4)cnc23)cs1)C(F)(F)F	–	–	–	–	–	0	0.41
